Reference: patent US20210308182A1, “REGULATORY T CELL EPITOPES” (EpiVax Inc., priority 2020, published 2021)

Key:
CD4+ effector T cells = type: cell-based, human
[1] = tested on: T cells of PBMCs from lupus patients; details: randomly selected lupus patients; cited from earlier work
human DR molecules = details: cited from earlier work

Sequence	suppression of activated effector CD4+ T cells (CD4+/CD25-high/FoxP3-intermediate) reacting to Tetanus Toxoid (CD4+ effector T cells)	suppression of proliferation of CD4+ effector T cells (CFSE) (CD4+ effector T cells)	lupus patients whose PBMCs contain T cells that proliferate in response to the peptide [1]	binding to soluble HLA class II molecules (human DR molecules)
KTLYLQMNSLRAEDTAKH (listed as Homo sapiens) [SEQ ID NO: 7]	strongly suppressed	Suppressed	–	–
RIHMVYSKRSGKPRGYAFIEY (listed as Homo sapiens) [peptide 131-151]	–	–	40%	binds to a large panel of human DR molecules
